From article PMC11071220, “Identification and characterization of a new potent inhibitor targeting CtBP1/BARS in melanoma cells” (Journal of Experimental & Clinical Cancer Research : CR, 2024)

Key:
CtBP1/BARS [1] = target: T1, CtBP1/BARS (Rattus norvegicus, UniProt Q9Z2F5); assay: ITC; also tryptophan fluorescence quenching (Kd […]); assay type: binding; parameters: His-CtBP1/BARS wt, full-length (CtBP1-S/BARS)
CtBP1/BARS [2] = target: T1, CtBP1/BARS; assay: size-exclusion chromatography (dimer to tetramer shift, […] NAD+); pull-down of self-association; assay type: biochemical

Structure (SMILES) | Kd (CtBP1/BARS [1]) [nM] | size-exclusion chromatography (dimer to tetramer shift, 100 μM NAD+); pull-down (CtBP1/BARS [2])
O=C(Nc1ccc([N+](=O)[O-])cc1)Nc1ccc(S(=O)(=O)Nc2ccc(Cl)c(Cl)c2)cc1 [Comp.11, N-(3,4-dichlorophenyl)-4-{[(4-nitrophenyl)carbamoyl]amino}benzenesulfonamide] | 660 ± 200 | 
NC(=O)c1ccc[n+]([C@@H]2O[C@H](COP(=O)([O-])OP(=O)(O)OC[C@H]3O[C@@H](n4cnc5c(N)ncnc54)[C@H](O)[C@@H]3O)[C@@H](O)[C@H]2O)c1 [NAD+] |  | The addition of NAD^+ shifts the elution patterns so that the majority of CtBP1/BARS elutes as a tetramer
